This note sets out measurements from article PMC9151520 (Archives of Toxicology, 2022).

Values joined by “and” are separate entries in the source; they are usually repeats but may differ in a detail not shown here. Equal values may be shown once. Read-outs that look alike come from different tables or passages of the source.

In data set [1] the test system is p53 signaling (p53RE-bla HCT-116 cells). Description: cells. The format is cell-based.
Data set [2] has the same test system. Kind of data set: cells. The class given is cell-based. The source holds these as a separate data set.
For data set [3] the test system is unchanged. Kind of data set: cells. The format is cell-based.
For data set [4] the test system is unchanged. Description: cells. The conditions noted are these: Homo sapiens.
The test system is the same in data set [5].
Data set [6] shares this test system. The source holds these as a separate data set.

Turning to `c1ccc2cc3c(cc2c1)-c1cccc2cccc-3c12` [Benzo(k)fluoranthene], the “p53 activation Efficacy, No MS” value in data set [1] is 189.362% and 164.004%. Further, the EC50 in data set [1] (Homo sapiens, HCT-116, read-out: p53 activation EC50, No MS) was 8.42 µM. Further, in data set [1] (read-out: p53 activation EC50, No MS), the half-maximal effective concentration (EC50) was determined as 12.2 µM. The compound also registered a concentration for a half-maximal effect (EC50) in data set [2] (Homo sapiens, HCT-116, 0.5 h) of 10400 nM. The same compound gave an EC50 in data set [3] (Homo sapiens, HCT-116) of 32.9 µM. Moreover, in the data set with p53RE-bla HCT-116 cells, the “Viability EC50, HLM” value is “inactive”; the “Viability EC50, No MS” value is “inactive”; the “Viability EC50, RLM” value is “inactive”; the “Viability Efficacy, HLM” value was “inactive”. In the data set on p53RE-bla HCT-116 cells, the “Viability Efficacy, No MS” value was “inactive” and the “Viability Efficacy, RLM” value is “inactive”. In data set [4] (HCT-116), this compound yielded a concentration giving a half-maximal response (EC50) of 37 µM. Also, the Emax in data set [4] (HCT-116, read-out: efficacy) is 565%.
For `COP(=S)(OC)Oc1nc(Cl)c(Cl)cc1Cl` [Chlorpyrifos-methyl], the “p53 activation EC50, cherry pick confirmation” value in data set [1] and in data set [5] was “inactive” throughout. Moreover, the “p53 activation EC50, primary screening” value in data set [1] and in data set [5] was “inactive” each time. Also, the “p53 activation efficacy, cherry pick confirmation” value in data set [1] and in data set [5] was “inactive” throughout. Moreover, the “p53 activation efficacy, primary screening” value in data set [1] and in data set [5] was “inactive” throughout. Also, the concentration for a half-maximal effect (EC50) in data set [2] (Homo sapiens, HCT-116, 0.5 h) came out at 1780 nM; in data set [3] (Homo sapiens, HCT-116), 24 µM; in data set [4] (HCT-116) it was 15.5 µM; in data set [4] (HCT-116, read-out: p53 activation EC50, cherry pick confirmation) it was 21.6 µM; in data set [4] (HCT-116, read-out: p53 activation EC50, primary screening), 11 µM. Also, in the data set with p53RE-bla HCT-116 cells, the “Viability EC50, cherry pick confirmation” value is “inactive”. Moreover, in the data set with p53RE-bla HCT-116 cells, the “Viability EC50, primary screening” value is “inactive”. In addition, in the data set on p53RE-bla HCT-116 cells, the “Viability efficacy, cherry pick confirmation” value was “inactive”. For the same compound, in the data set with p53RE-bla HCT-116 cells, the “Viability efficacy, primary screening” value is “inactive”. Moreover, the Emax in data set [4] (HCT-116, read-out: efficacy) is 45%; in data set [4] (HCT-116, read-out: p53 activation efficacy, cherry pick confirmation) it was 62.8%; in data set [4] (HCT-116, read-out: p53 activation efficacy, primary screening), 36.2%.
Take `CCc1c2c(nc3ccc(OC(=O)N4CCC(N5CCCCC5)CC4)cc13)-c1cc3c(c(=O)n1C2)COC(=O)[C@]3(O)CC` [Irinotecan, reference compound]: the half-maximal effective concentration (EC50) result in data set [2] is “Inactive”; in data set [3] (Homo sapiens, HCT-116), 0.29 µM; in data set [4] (HCT-116), 0.23 µM. Besides, the Emax in data set [3] (Homo sapiens, HCT-116, read-out: efficacy) is 79.9%; in data set [4] (HCT-116, read-out: efficacy) it was 109%.
In the case of `COP(=O)(OC)O/C(=C\Cl)c1cc(Cl)c(Cl)cc1Cl` [Tetrachlorvinphos (Gardona), Tetrachlorvinphos], the EC50 in data set [2] (Homo sapiens, HCT-116, 0.5 h) came out at 2530 nM; in data set [3] (Homo sapiens, HCT-116) it was 18.1 µM; in data set [4] (HCT-116) it was 10.5 µM. Further, in data set [4] (HCT-116, read-out: efficacy), the Emax is 39.9%.
Turning to `COc1cc([C@@H]2c3cc4c(cc3[C@@H](O[C@@H]3O[C@@H]5CO[C@@H](C)O[C@H]5[C@H](O)[C@H]3O)[C@H]3COC(=O)[C@H]23)OCO4)cc(OC)c1O` [etoposide, reference compound], the EC50 in data set [1] (Homo sapiens, HCT-116, read-out: EC50, p53 activation, primary screening) is 1.33 µM. In addition, the Emax in data set [1] (Homo sapiens, HCT-116, read-out: Efficacy, p53 activation, cherry pick confirmation) is 72.1%. Also, the Emax in data set [1] (Homo sapiens, HCT-116, read-out: Efficacy, p53 activation, primary screening) was 62.9%. For the same compound, the “p53 induction in the presence of microsomes compared with absence of microsomes” value in data set [6] is “inactivity or lower activity”. In data set [5], the “EC50, p53 activation, cherry pick confirmation” value is “inactive”; the “EC50, p53 activation, primary screening” value is “inactive”; the “Efficacy, p53 activation, cherry pick confirmation” value is “inactive”; the “Efficacy, p53 activation, primary screening” value is “inactive”. Besides, in the data set on p53RE-bla HCT-116 cells, the “EC50, viability, cherry pick confirmation” value was “inactive”; the “EC50, viability, primary screening” value is “inactive”; the “Efficacy, viability, cherry pick confirmation” value is “inactive”; the “Efficacy, viability, primary screening” value was “inactive”. The concentration giving a half-maximal response (EC50) in data set [4] (HCT-116, read-out: EC50, p53 activation, primary screening) stood at 0.888 µM. Moreover, in data set [4] (HCT-116, read-out: Efficacy, p53 activation, cherry pick confirmation), the Emax worked out at 32.9%. For the same compound, in data set [4] (HCT-116, read-out: Efficacy, p53 activation, primary screening), the Emax is 22.1%.
As for Aflatoxin B1 [reference compound], the 50% effective concentration (EC50) result was “inactive” in data set [2]; “inactive” in data set [3]; 4.5 µM and 5.3 µM and 3 µM in data set [5]. Further, in data set [6], the p53 activation efficacy was 77.9079 and 59.8273. Besides, the “potency in the confirmation study compared to the primary screening” value in data set [6] is “tenfold higher potency”.
